Measurements taken from PubChem BioAssay AID1918943 (Molecular Pharmacology Branch, DTP, NCI, 2023).
Values joined by “and” are separate entries in the source; they are usually repeats but may differ in a detail not shown here. Identical values can stand only once.

System: 855422-203-R-J1-PDC complex spheroid viability
Assay: Anticancer human tumor 855422-203-R-J1-PDC patient-derived bladder carcinoma cell line growth inhibition
Conditions: for viability, T/C: stronger effect = lower value; active = viability on the fitted dose curve at most 10% of control; inactive = the rest
Procedure, shortened: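 Drug combinations with the LSD1 inhibitor iadademstat tested on tumor cells co-cultured as spheroids with endothelial cells and mesenchymal stem cells. Concentrations descended in half-log increments from clinical Cmax or 10 microM.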

[1] = curve of first compound, second compound 0.1 µM
[2] = curve of first compound, second compound 0.316 µM
[3] = curve of first compound, second compound 1 µM
[4] = curve of first compound, second compound 3.16 µM
[5] = curve of first compound, second compound 10 µM
[6] = second compound 0.1 µM, first compound 0.0316 µM
[7] = second compound 0.1 µM, first compound 0.1 µM
[8] = second compound 0.1 µM, first compound 0.316 µM
[9] = second compound 0.1 µM, first compound 1 µM
[10] = second compound 0.1 µM, first compound 3.16 µM
[11] = second compound 0.1 µM, first compound 10 µM
[12] = second compound 0.316 µM, first compound 0.0316 µM
[13] = second compound 0.316 µM, first compound 0.1 µM
[14] = second compound 0.316 µM, first compound 0.316 µM
[15] = second compound 0.316 µM, first compound 1 µM
[16] = second compound 0.316 µM, first compound 3.16 µM
[17] = second compound 0.316 µM, first compound 10 µM
[18] = second compound 1 µM, first compound 0.0316 µM
[19] = second compound 1 µM, first compound 0.1 µM
[20] = second compound 1 µM, first compound 0.316 µM
[21] = second compound 1 µM, first compound 1 µM
[22] = second compound 1 µM, first compound 3.16 µM
[23] = second compound 1 µM, first compound 10 µM
[24] = second compound 3.16 µM, first compound 0.0316 µM
[25] = second compound 3.16 µM, first compound 0.1 µM
[26] = second compound 3.16 µM, first compound 0.316 µM
[27] = second compound 3.16 µM, first compound 1 µM
[28] = second compound 3.16 µM, first compound 3.16 µM
[29] = second compound 3.16 µM, first compound 10 µM
[30] = second compound 10 µM, first compound 0.0316 µM
[31] = second compound 10 µM, first compound 0.1 µM
[32] = second compound 10 µM, first compound 0.316 µM
[33] = second compound 10 µM, first compound 1 µM
[34] = second compound 10 µM, first compound 3.16 µM
[35] = second compound 10 µM, first compound 10 µM
[36] = second compound 0.1 µM, first compound 0.00949 µM
[37] = second compound 0.1 µM, first compound 0.03 µM
[38] = second compound 0.1 µM, first compound 0.0949 µM
[39] = second compound 0.1 µM, first compound 0.3 µM
[40] = second compound 0.1 µM, first compound 0.949 µM
[41] = second compound 0.1 µM, first compound 3 µM
[42] = second compound 0.316 µM, first compound 0.00949 µM
[43] = second compound 0.316 µM, first compound 0.03 µM
[44] = second compound 0.316 µM, first compound 0.0949 µM
[45] = second compound 0.316 µM, first compound 0.3 µM
[46] = second compound 0.316 µM, first compound 0.949 µM
[47] = second compound 0.316 µM, first compound 3 µM
[48] = second compound 1 µM, first compound 0.00949 µM
[49] = second compound 1 µM, first compound 0.03 µM
[50] = second compound 1 µM, first compound 0.0949 µM
[51] = second compound 1 µM, first compound 0.3 µM
[52] = second compound 1 µM, first compound 0.949 µM
[53] = second compound 1 µM, first compound 3 µM
[54] = second compound 3.16 µM, first compound 0.00949 µM
[55] = second compound 3.16 µM, first compound 0.03 µM
[56] = second compound 3.16 µM, first compound 0.0949 µM
[57] = second compound 3.16 µM, first compound 0.3 µM
[58] = second compound 3.16 µM, first compound 0.949 µM
[59] = second compound 3.16 µM, first compound 3 µM
[60] = second compound 10 µM, first compound 0.00949 µM
[61] = second compound 10 µM, first compound 0.03 µM
[62] = second compound 10 µM, first compound 0.0949 µM
[63] = second compound 10 µM, first compound 0.3 µM
[64] = second compound 10 µM, first compound 0.949 µM
[65] = second compound 10 µM, first compound 3 µM
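Note: drug exposure lasted 7 days starting on day 3 after seeding.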
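Throughout, for viability, T/C: luminescence viability as percent of DMSO vehicle wells = 100%.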

CC1COCCN1c1cc(C2(S(C)(=N)=O)CC2)nc(-c2ccnc3[nH]ccc23)n1 (stereo unspecified) + NC1CCC(NC2CC2c2ccccc2)CC1
5470 nM: IC50 [1]
2790 nM: IC50 [4]
2440 nM: IC50 [5]
3140 nM: IC50 [3]
6000 nM: IC50 [2]
inactive: viability, T/C [6] 98.1% | viability, T/C [7] 97.4% | viability, T/C [8] 104% | viability, T/C [9] 93.1% | viability, T/C [10] 57.6% | viability, T/C [11] 41.7% | viability, T/C [12] 97.4% | viability, T/C [13] 101% | viability, T/C [14] 102% | viability, T/C [15] 92.7% | viability, T/C [16] 60.6% | viability, T/C [17] 41.6% | viability, T/C [18] 91.1% | viability, T/C [19] 93.1% | viability, T/C [20] 90.7% | viability, T/C [21] 87.7% | viability, T/C [22] 49.8% | viability, T/C [23] 45.7% | viability, T/C [24] 86.2% | viability, T/C [25] 87.9% | viability, T/C [26] 93.1% | viability, T/C [27] 83.3% | viability, T/C [28] 46% | viability, T/C [29] 43.4% | viability, T/C [30] 86% | viability, T/C [31] 85.5% | viability, T/C [32] 89.8% | viability, T/C [33] 77.8% | viability, T/C [34] 42% | viability, T/C [35] 39.2%

Nc1ccccc1NC(=O)c1ccc(CNC(=O)OCc2cccnc2)cc1 + NC1CC1c1ccc(-c2cccc(O)c2)cc1
1030 nM: IC50 [5]
1070 nM: IC50 [3]
1300 nM: IC50 [2]
993 nM: IC50 [4]
active: viability, T/C [47] 7.62% | viability, T/C [53] 6.8% | viability, T/C [59] 5.73% | viability, T/C [65] 2.03%
inactive: viability, T/C [36] 90.3% | viability, T/C [37] 91.2% | viability, T/C [38] 98.5% | viability, T/C [39] 97.8% | viability, T/C [40] 60.8% | viability, T/C [41] 11.8% | viability, T/C [42] 95.3% | viability, T/C [43] 92.6% | viability, T/C [44] 104% | viability, T/C [45] 96.4% | viability, T/C [46] 65.9% | viability, T/C [48] 89.4% | viability, T/C [49] 90.4% | viability, T/C [50] 85.9% | viability, T/C [51] 82.8% | viability, T/C [52] 54.7% | viability, T/C [54] 87.9% | viability, T/C [55] 86.6% | viability, T/C [56] 91% | viability, T/C [57] 90.2% | viability, T/C [58] 51.9% | viability, T/C [60] 98.7% | viability, T/C [61] 91.3% | viability, T/C [62] 91.1% | viability, T/C [63] 87.4% | viability, T/C [64] 53.5%
1220 nM: IC50 [1]

O=C(c1cc(Cc2n[nH]c(=O)c3ccccc23)ccc1F)N1CCN(C(=O)C2CC2)CC1 + NC1CC1c1ccc(-c2cccc(O)c2)cc1
> 10000 nM: IC50 [1] | IC50 [2] | IC50 [3] | IC50 [4] | IC50 [5]
inactive: viability, T/C [6] 98.9% | viability, T/C [7] 99.2% | viability, T/C [8] 99.8% | viability, T/C [9] 98% | viability, T/C [10] 102% | viability, T/C [11] 84% | viability, T/C [12] 91.1% | viability, T/C [13] 87.4% | viability, T/C [14] 97.2% | viability, T/C [15] 98.4% | viability, T/C [16] 101% | viability, T/C [17] 81.4% | viability, T/C [18] 90.1% | viability, T/C [19] 87.7% | viability, T/C [20] 89.3% | viability, T/C [21] 95.5% | viability, T/C [22] 90.3% | viability, T/C [23] 80.8% | viability, T/C [24] 94.4% | viability, T/C [25] 89.7% | viability, T/C [26] 92.1% | viability, T/C [27] 91.3% | viability, T/C [28] 93.6% | viability, T/C [29] 70.1% | viability, T/C [30] 92.2% | viability, T/C [31] 89.4% | viability, T/C [32] 85.1% | viability, T/C [33] 89.6% | viability, T/C [34] 83.3% | viability, T/C [35] 55.5%

NS(=O)(=O)OCC1CC(n2ccc3c(NC4CCc5ccccc54)ncnc32)CC1O (stereo unspecified) + NC1CCC(NC2CC2c2ccccc2)CC1
765 nM: IC50 [2]
708 nM: IC50 [1]
469 nM: IC50 [5]
active: viability, T/C [59] 9.44% | viability, T/C [65] 10.1%
747 nM: IC50 [3]
593 nM: IC50 [4]
inactive: viability, T/C [36] 102% | viability, T/C [37] 102% | viability, T/C [38] 102% | viability, T/C [39] 88.6% | viability, T/C [40] 36.9% | viability, T/C [41] 14.8% | viability, T/C [42] 100% | viability, T/C [43] 98.6% | viability, T/C [44] 76.6% | viability, T/C [45] 87.4% | viability, T/C [46] 41.5% | viability, T/C [47] 13.9% | viability, T/C [48] 105% | viability, T/C [49] 108% | viability, T/C [50] 79.9% | viability, T/C [51] 83% | viability, T/C [52] 38.9% | viability, T/C [53] 17.4% | viability, T/C [54] 95.3% | viability, T/C [55] 90% | viability, T/C [56] 80% | viability, T/C [57] 74.5% | viability, T/C [58] 34.1% | viability, T/C [60] 86.9% | viability, T/C [61] 95.7% | viability, T/C [62] 70.9% | viability, T/C [63] 69.9% | viability, T/C [64] 23.8%

COc1cc(Nc2ncc3c(n2)-c2ccc(Cl)cc2C(c2c(F)cccc2OC)=NC3)ccc1C(=O)O + NC1CC1c1ccc(-c2cccc(O)c2)cc1
670 nM: IC50 [1]
89.7 nM: IC50 [3]
inactive: viability, T/C (second compound 0.1 µM, first compound 0.00316 µM) 96.4% | viability, T/C (second compound 0.1 µM, first compound 0.01 µM) 103% | viability, T/C [6] 84% | viability, T/C [7] 68.6% | viability, T/C [8] 56.2% | viability, T/C [9] 46.5% | viability, T/C (second compound 0.316 µM, first compound 0.00316 µM) 96.9% | viability, T/C (second compound 0.316 µM, first compound 0.01 µM) 96.4% | viability, T/C [12] 71% | viability, T/C [13] 61.2% | viability, T/C [14] 49.9% | viability, T/C [15] 44.4% | viability, T/C (second compound 1 µM, first compound 0.00316 µM) 82.5% | viability, T/C (second compound 1 µM, first compound 0.01 µM) 93.4% | viability, T/C [18] 69.5% | viability, T/C [19] 51.8% | viability, T/C [20] 45.8% | viability, T/C [21] 46.1% | viability, T/C (second compound 3.16 µM, first compound 0.00316 µM) 88.3% | viability, T/C (second compound 3.16 µM, first compound 0.01 µM) 95.5% | viability, T/C [24] 69.9% | viability, T/C [25] 61.4% | viability, T/C [26] 50% | viability, T/C [27] 43.4% | viability, T/C (second compound 10 µM, first compound 0.00316 µM) 85.7% | viability, T/C (second compound 10 µM, first compound 0.01 µM) 94.1% | viability, T/C [30] 63.1% | viability, T/C [31] 56.8% | viability, T/C [32] 44.2% | viability, T/C [33] 39.5%
135 nM: IC50 [5]
275 nM: IC50 [4]
284 nM: IC50 [2]

COc1ccc([C@@H](O)c2cc(-c3ncnc4cc(N5CCOCC5)ccc34)c(F)cc2Cl)nn1
inactive: viability, T/C (compound 0.0316 µM) 95% and 94.1% | viability, T/C (compound 0.1 µM) 94.7% and 94.4% | viability, T/C (compound 0.316 µM) 79.5% and 92.2% | viability, T/C (compound 1 µM) 74.3% and 85.5% | viability, T/C (compound 3.16 µM) 53.7% and 69.3% | viability, T/C (compound 10 µM) 38.6% and 39.6%
4480 nM and 6680 nM: IC50 (curve of compound)

CC[C@@]1(O)C(=O)OCc2c1cc1n(c2=O)Cc2cc3c(CN(C)C)c(O)ccc3nc2-1
7.4 nM and 8.07 nM: IC50 (curve of compound)
inactive: viability, T/C (compound 0.000316 µM) 90.1% and 96.8% | viability, T/C (compound 0.001 µM) 95.2% and 97.2% | viability, T/C (compound 0.00316 µM) 89.8% and 94.5% | viability, T/C (compound 0.01 µM) 35.8% and 39.8% | viability, T/C (compound 0.0316 µM) 25.6% and 21.1% | viability, T/C (compound 0.1 µM) 14.6% and 14.9%

CC1COCCN1c1cc(C2(S(C)(=N)=O)CC2)nc(-c2ccnc3[nH]ccc23)n1 (stereo unspecified)
inactive: viability, T/C (compound 0.0316 µM) 108% and 93.8% | viability, T/C (compound 0.1 µM) 99.9% and 93.1% | viability, T/C (compound 0.316 µM) 101% and 94.4% | viability, T/C (compound 1 µM) 84.9% and 85.9% | viability, T/C (compound 3.16 µM) 45% and 36.6% | viability, T/C (compound 10 µM) 40.7% and 35%
2760 nM and 2310 nM: IC50 (curve of compound)
